Laboratory results published in patent US20080249153A1, “ANTHELMINTIC FORMULATIONS” (priority 2005, published 2008).
Read-outs that look alike come from different tables or passages of the source. Each block holds one compound with its values, some of them ahead of it.

Key:
[1] = Solubility studies of benzimidazoles (triclabendazole, oxfendazole, albendazole, ricobendazole) in different organic solvents; type: physicochemical
Description: As a comparison trials were conducted to determine the solubility of various members of the benzimidazole family in different solvents.
But more importantly it was discovered that triclabendazole is extremely soluble in 2-pyrrolidone and PEG 400 with more than 500 mg of triclabendazole capable of being dissolved in a ml of these solvents. This is particularly advantageous as it allows for formulations of low volume to be formulated for delivery to cattle and other animals.

[2] = Solubility studies of triclabendazole in different alcohols; type: physicochemical
[3] = solvents such as benzyl alcohol, propylene glycol, NMP, 2-pyrollidone, PEG, glycerol formal and butyl dioxitol

Solubility (in words) [1]: more soluble generally | Quantity dissolved in 10 ml solvent ([1]; in 10 ml 2-pyrrolidone, flowable in nature): 10.0 g (flowable | Quantity dissolved in 10 ml solvent ([1]; in 10 ml Benzyl Alcohol, max solubility): 5.0 g (Max | Quantity dissolved in 10 ml solvent ([1]; in 10 ml DGBE (butyl dioxitol), max solubility): 2.0 g (Max | Quantity dissolved in 10 ml solvent ([1]; in 10 ml Glyceryl Formal, max solubility): 1 g (Max | Quantity dissolved in 10 ml solvent ([1]; in 10 ml NMP, max solubility): 4.5 g (Max | Quantity dissolved in 10 ml solvent ([1]; in 10 ml PEG400, flowable in nature): 10.0 g (flowable | Quantity dissolved in 10 ml solvent ([1]; in 10 ml Propylene Glycol, max solubility): 1.5 g (Max | Amount dissolved ([1]; solvent Benzyl Alcohol, max solubility): 357.14 mg/mL | Amount dissolved ([1]; solvent DGBE (butyl dioxitol), max solubility): 166.66 mg/mL | Amount dissolved ([1]; solvent Glyceryl Formal, max solubility): 90.91 mg/mL | Amount dissolved ([1]; solvent NMP (N-methyl pyrrolidone), max solubility): 321.43 mg/mL | Amount dissolved ([1]; solvent Propylene Glycol, max solubility): 136.36 mg/mL | Amount dissolved ([2]; solvent 1-butanol): 117.5 mg/mL | Quantity dissolved in solvent ([2]; solvent 1-butanol): 2 gm/15 ml | Amount dissolved ([2]; solvent 1-hexanol): 117.5 mg/mL | Quantity dissolved in solvent ([2]; solvent 1-hexanol): 2 gm/15 ml | Amount dissolved ([2]; solvent Ethyl alcohol): 88.88 mg/mL | Quantity dissolved in solvent ([2]; solvent Ethyl alcohol): 2 gm/20 ml | Amount dissolved ([2]; solvent Isopropyl alcohol): 117.5 mg/mL | Quantity dissolved in solvent ([2]; solvent Isopropyl alcohol): 2 gm/15 ml | Amount dissolved ([2]; solvent Methyl alcohol): 88.88 mg/mL | Quantity dissolved in solvent ([2]; solvent Methyl alcohol): 2 gm/20 ml
Compound: CSc1nc2cc(Cl)c(Oc3cccc(Cl)c3Cl)cc2[nH]1 [triclabendazole, 5-Chloro-6-(3,3-dichlorophenoxy)-2-methylthio-1H-benzimidazole]

Compound: COC(=O)Nc1nc2ccc([S+]([O-])c3ccccc3)cc2[nH]1 (centres unmarked) [oxfendazole]
Solubility (in words) [1]: either insoluble or so insignificantly soluble

Compound: CCC[S+]([O-])c1ccc2[nH]c(NC(=O)OC)nc2c1 (centres unmarked) [ricobendazole]
Solubility (in words) [1, 3]: either insoluble or so insignificantly soluble

Compound: CCCSc1ccc2nc(NC(=O)OC)[nH]c2c1 [albendazole]
Solubility (in words) [1, 3]: either insoluble or so insignificantly soluble
